We go through 2 compounds from paper PMC8614864, “Bioengineered System for High Throughput Screening of Kv1 Ion Channel Blockers” (Bioengineering, 2021).

Read-outs that look alike come from different tables or passages of the source.

Assay [1] concerns hybrid Kv1-KcsA channels expressed in the E. coli membrane. The following applies: laser scanning confocal microscopy, competitive binding; cited from earlier work. The source says: In order to estimate the possibilities and limitations of the assay, the molecular details of blocker interaction with a natural and chimeric channel should be considered. The common feature of the peptide blocker binding is an occlusion of the pore with the side chain of a lysine residue, which is accompanied by the formation of multiple bonds between the peptide and amino acid residues surrounding the pore. Since the pore occlusion is the essential feature of any Kv1-channel blocker interacting with a channel at the extracellular side, the binding sites of peptide blockers and sm ...

Assay [2] deals with KcsA-Kv1.3-RFP. Nature of the assay: Direct titration of GFP-labeled toxins on spheroplasts by flow cytometry. To be noted: slope by linear fitting of reduced data (maximum of normal distribution along GFP axis); one-site binding curve; 90–120 min incubation, 50 mM Tris–HCl pH 7.5 binding buffer; Mean ± SD (SD from fit, single dataset). (In general: In flow cytometry, cells or beads pass a laser one at a time.)

For assay [3], the system named is KcsA-Kv1.3-RFP. Described as above. It counts as binding. The procedure: Spheroplasts were prepared according to the previously developed protocol. Briefly, E. coli cells (BL21 (DE3) strain) transformed with pET28a-KcsA-Kv1.3-RFP plasmid were cultivated in a minimal M9 medium at 37 °C up to OD560 = 0.8, then induced with 50 μM IPTG and further grown for 18 h. Cells were harvested by centrifugation (5000× g, 10 min, 4 °C), incubated in buffer A (10 mM Tris–HCl, pH 8.0, 0.5 m sucrose) containing lysozyme (20 μg/mL) for 7 min on ice, then diluted twofold with buffer B (10 mM Tris–HCl, pH 8.0, 0.3 mM ethylenediamine tetraacetic acid) and further incubated for 20 min. Then MgCl2 was added to a final concentration of 10 mM to stabilize the spheroplasts. Obtained in this way, the spheroplast suspension has OD560 of about 0.5 and was diluted for binding assay as described further.
For ligand binding analysis, a series of ligand dilutions were prepared in 12 × 75 mm flow cytometry test tubes. For this, 45 µL of toxin solution with a ten times higher concentration than the maximal concentration on titration curve was prepared. This solution was serially diluted with 3.16-fold step (13.9 µL of toxin solution + 30 µL buffer). These toxin dilutions were supplemented with 270 µL of spheroplast suspension at 10^6 cells/mL to give 300 µL final reaction mixtures. For analysis of displacement of GFP-labeled toxins by unlabeled toxins, spheroplast suspensions were supplemented with 1.1× concentration of GFP-labeled toxin before mixing with unlabeled toxin dilutions. All dilutions were made in a binding buffer: 0.25 M sucrose, […], 2 mM KCl, 50 mM NaCl, 10 mM MgCl2, 0.2% BSA and 50 mM Tris–HCl, pH 7.5.
To ensure equilibrium conditions, we analyzed samples after 90–120 min of incubation without removing toxins. Data acquisition was carried out with FC-500 flow cytometer (Beckman Coulter, Brea, CA, USA) using 488 nm excitation for both GFP and RFP and fluorescence detection with FL1 (505–545 nm) and FL3 (610–630 nm) channels for GFP and RFP, respectively. To minimize background fluorescence, samples were run at low speed that gave approx. 100–500 events/s. Events were triggered by side scatting (SSC) so that RFP-labeled cells constituted approx. 30% of events (Figure 2). Remaining events were also present in the samples of filtered binding buffer without cells, so were likely to be related to system noise (either electronic or optical) but not to the dim spheroplasts.
Automated data analysis was performed by a dedicated script after pre-processing with commercial software. The script was available in user-friendly Jupyter notebook format where data were processed stepwise, and user input-output was realized through an internet browser. This script is designed to process multiple datasets at once and can be easily adjusted for someone’s actual needs.
Initial preprocessing was done with used FlowJo v10 software (Treestar Inc., Wilmington, DE, USA). This was used for gating on cells by forward and side scatter, followed by gating of RFP-positive events (Figure 1) and exporting of gated data in FCS format. This step was preferable since it allowed one to convert data into a conventional FCS format (our flow cytometer import data in LMD file format) and to filter out off-target events such as system noise, cell debris, clumped and untransfected cells (without Kv1.3-RFP in our case). We also created a script for this preprocessing but found it more complicated and less robust than commercial software.
Filtered data were processed stepwise by a dedicated script, written in the Python programming language and available as a Jupyter notebook for running either on a local machine or in a kaggle data cloud (https://www.kaggle.com/georgesharonov/fcsgroupfit, accessed and executed on 14 November 2021). Data processing workflow was designed for high throughput analysis by processing all similar data in a single script execution. The processing steps were detailed within the notebook. […]

With `CC[N+](CC)(CC)CC` [tetraethylammonium], in assay [1], the “competitive ligand for Kv1-KcsA hybrid channels” value is recorded as “competitive ligand”.

For “ChTx-GFP: hybrid protein, ChTx tagged N-terminally with eGFP, analogous to AgTx2-GFP; fluorescent probe”, the dissociation constant Kd in assay [2] amounted to 0.74 ± 0.17 nM; in assay [3] (binding curve of direct titration, reduced data, nonspecific binding subtracted, flow cytometry, read-out: Kd (printed in Figure 4A)), 0.735 nM. Besides, the “Slope, nonspecific binding” value in assay [3] (1 nM labeled toxin + 316 nM ChTx, fitting of all events) is 0.47; in assay [3] (1 nM labeled toxin + 316 nM ChTx, fitting of reduced data) it was 0.25; in assay [3] (10 nM labeled toxin + 316 nM ChTx, fitting of all events), 0.53; in assay [3] (10 nM labeled toxin + 316 nM ChTx, fitting of reduced data) it was 0.21. Besides, the “Slope (proportional to occupied receptor fraction)” value in assay [3] (1 nM labeled toxin, fitting of all events) was determined as 0.55; in assay [3] (1 nM labeled toxin, fitting of reduced data), 0.56; in assay [3] (10 nM labeled toxin, fitting of all events), 0.87; in assay [3] (10 nM labeled toxin, fitting of reduced data), 0.84.

For orientation: Kd means a measure of binding affinity in units of concentration.
